“And” between values parts separate entries of the source, which are not always exact repeats. Equal values may be shown once. Marks after values point to notes of the source that are not given here.
Test: In vitro simulated gastrointestinal digestion (SGD, INFOGEST 2.0): concentration and bioaccessibility by UHPLC-DAD-MSn
Conditions: 2 min
Description: Preliminary solubility tests in different solvents, namely water, sodium phosphate buffer (26.8 mM, pH 6.1), ethanol, and also a mixture of ethanol with both water and sodium phosphate buffer, were carried out for each PC (data not shown), to prevent erroneous data arising from compounds precipitation. Ethanol percentages used in these preliminary solubility tests were 10, 15, and 20% (v/v).
Each PC solubilized in ethanol:water (15% v/v) was then submitted to an in vitro SGD (INFOGEST 2.0), according to a standardized protocol (Fig. 2). In order to determine whether the interaction between the compounds and enzymes led to an underestimation of their content, each PC solution was submitted to the same digestion procedure, replacing the enzyme solutions with water, which were designed as controls, henceforth this will be the term used. Each sample and control were submitted to three independent in vitro digestion simulations, and after each digestion phase, a sample/control was collected and further analyzed and quantified by UHPLC-DAD-MSn.
(§1) Mouth digestion of each PC solution (1 mL) was diluted in 0.8 mL of simulated salivary fluid (SSF) and α-amylase (75 U mL-1). Then, the mixture was incubated for 2 min at 37 °C under agitation (200 rpm). In order to start gastric digestion, pH was adjusted to 3.0 using 1 M aqueous HCl and then, a pepsin solution (2000 U mL-1) and simulated gastric fluid (SGF) were added. Subsequently, the mixture was incubated for 2h, at 37 °C and 130 rpm orbital agitation for the stomach digestion. Finally, the small intestine digestion simulation was performed after pH adjustment to 7.0 using 1 M aqueous […] and the addition of pancreatin (100 U mL-1), bile salts solution (10 mM) and simulated intestinal fluid (SIF), during 2 h, at 37 °C with 45 rpm orbital agitation. Natural small intestine absorption was also simulated, by placing the remaining sample in a dialysis membrane, and immersed in distilled water overnight at room temperature.
At each sampling point, an aliquot (0.5 mL) from each of the three replicates was collected. The enzymatic activity was stopped immediately by adding pure methanol to each aliquot (1:1, v/v) to promote enzyme precipitation and subsequently centrifuged at 10 000 g and 4 °C for 5 min. The supernatants were filtered with a 0.2 μm nylon filter. To determine the concentration of each sample or control, it was considered the following dilution factor – 1:2, 1:4 and 1:8 for oral, gastric and intestinal digestion phase, respectively.
The bioaccessibility percentage (B%) of each PC was calculated using equation (1):(1) B(%)=[DS]/[IS]×100 where IS is the initial concentration of PCs in ethanol:water (15% v/v) solutions, DS is the concentration of each collected sample or control (without enzymes).
(§2) The values of B% and IA% were the average of the three replicates performed, with the calculated standard deviation.
PCs were analyzed in a UHPLC system equipped with a variable loop Accela autosampler (set at 16 °C), an Accela 600 LC pump, and an Accela 80 Hz photo diode array detector (DAD) (Thermo Fisher Scientific, San Jose, CA, USA). Each sample was prepared in methanol:water (1:1, v/v) and filtered through a 0.2 μm nylon syringe filter. […] The mobile phase was composed of acetonitrile (A) and water:acetonitrile (99:1, v/v) (B), both with 0.1 % of formic acid. The gradient elution was performed as follows: 0–1min: 99% B; 1–17 min: 99-73% B, 17–20 min: 73-0% B, 20–25 min: 0–99% B, followed by re-equilibration of the column at 99% B for 4 min.

SMILES | Bioaccessibility (%), oral phase (O)
Oc1cc(O)cc(O)c1 [PG, phloroglucinol] | 92.78 ± 5.91^ b %

Same assay, conditions: controls (without enzymes); gastric phase

SMILES | Bioaccessibility (%), gastric phase (G) | Concentration, gastric phase (G)
O=c1c(-c2ccc(O)cc2)coc2cc(O)ccc12 [DAID, daidzein] | 70.95% and 70.95 ± 3.71 ^a % | 12.89 ± 0.67 µg/mL
Oc1cc(O)cc(O)c1 [PG, phloroglucinol] | 91.32% and 91.32 ± 3.79 ^a % | 4765.51 ± 197.78 µg/mL

Same assay, conditions: controls (without enzymes); initial solution

SMILES | Concentration, initial solution (IS)
O=c1c(-c2ccc(O)cc2)coc2cc(O)ccc12 [DAID, daidzein] | 18.17 µg/mL
Oc1cc(O)cc(O)c1 [PG, phloroglucinol] | 5218 µg/mL

Same assay, conditions: controls (without enzymes); initial solution, reference

SMILES | Bioaccessibility (%), initial solution (IS)
O=c1c(-c2ccc(O)cc2)coc2cc(O)ccc12 [DAID, daidzein] | 100^ a %
Oc1cc(O)cc(O)c1 [PG, phloroglucinol] | 100 ^a %

Same assay, conditions: controls (without enzymes); intestinal phase

SMILES | Bioaccessibility (%), intestinal phase (I) | Concentration, intestinal phase (I)
O=c1c(-c2ccc(O)cc2)coc2cc(O)ccc12 [DAID, daidzein] | 138.68% and 138.68 ± 9.01^ a % | 25.20 ± 1.64 µg/mL
Oc1cc(O)cc(O)c1 [PG, phloroglucinol] | 94.91% and 94.91 ± 5.32 ^a % | 4952.79 ± 277.44 µg/mL

Same assay, conditions: controls (without enzymes); oral phase

SMILES | Bioaccessibility (%), oral phase (O) | Concentration, oral phase (O)
O=c1c(-c2ccc(O)cc2)coc2cc(O)ccc12 [DAID, daidzein] | 78.35% and 78.35 ± 24.88^ a % | 14.24 ± 4.52 µg/mL
Oc1cc(O)cc(O)c1 [PG, phloroglucinol] | 94.08% and 94.08 ± 1.84 ^a % | 4909.58 ± 96.26 µg/mL

Same assay, conditions: samples with enzymes; after gastric digestion pH 3.0

SMILES | Concentration, gastric phase (G)
O=c1c(-c2ccc(O)cc2)coc2cc(O)ccc12 [DAID, daidzein] | 14.86 ± 1.98 µg/mL
Oc1cc(O)cc(O)c1 [PG, phloroglucinol] | 4910.12 ± 200.81 µg/mL

Same assay, conditions: samples with enzymes; after intestinal digestion pH 7.0

SMILES | Concentration, intestinal phase (I)
O=c1c(-c2ccc(O)cc2)coc2cc(O)ccc12 [DAID, daidzein] | 28.72 ± 2.03 µg/mL
O=c1oc2c(O)c(O)cc3c(=O)oc4c(O)c(O)cc1c4c23 [EA, ellagic acid] | 5.20 ± 0.10 µg/mL
Oc1cc(O)cc(O)c1 [PG, phloroglucinol] | 8339.90 ± 994.21 µg/mL

Same assay, conditions: samples with enzymes; after oral digestion

SMILES | Concentration, oral phase (O)
O=c1c(-c2ccc(O)cc2)coc2cc(O)ccc12 [DAID, daidzein] | 21.63 ± 5.52 µg/mL
O=c1oc2c(O)c(O)cc3c(=O)oc4c(O)c(O)cc1c4c23 [EA, ellagic acid] | 4.78 ± 1.75 µg/mL
Oc1cc(O)cc(O)c1 [PG, phloroglucinol] | 4841.66 ± 308.60 µg/mL

Same assay, conditions: samples with enzymes; gastric phase

SMILES | Bioaccessibility (%), gastric phase (G)
O=c1c(-c2ccc(O)cc2)coc2cc(O)ccc12 [DAID, daidzein] | 81.78% and 81.78 ± 10.87 ^a %
Oc1cc(O)cc(O)c1 [PG, phloroglucinol] | 94.09% and 94.09 ± 3.85^ b %

Same assay, conditions: samples with enzymes; intestinal phase

SMILES | Bioaccessibility (%), intestinal phase (I)
O=c1c(-c2ccc(O)cc2)coc2cc(O)ccc12 [DAID, daidzein] | 158.08% and 158.08 ± 11.20^ a %
Oc1cc(O)cc(O)c1 [PG, phloroglucinol] | 159.82% and 159.82 ± 19.05^ a %

Same assay, conditions: samples with enzymes; oral phase

SMILES | Bioaccessibility (%), oral phase (O)
O=c1c(-c2ccc(O)cc2)coc2cc(O)ccc12 [DAID, daidzein] | 119.06% and 119.06 ± 30.41^ a %
Oc1cc(O)cc(O)c1 [PG, phloroglucinol] | 92.78%

Same assay, conditions: samples; initial ethanol:water (15% v/v) solution

SMILES | Concentration, initial solution (IS)
O=c1c(-c2ccc(O)cc2)coc2cc(O)ccc12 [DAID, daidzein] | 18.17 µg/mL
Oc1cc(O)cc(O)c1 [PG, phloroglucinol] | 5218 µg/mL

Same assay, conditions: samples; initial solution, reference

SMILES | Bioaccessibility (%), initial solution (IS)
O=c1c(-c2ccc(O)cc2)coc2cc(O)ccc12 [DAID, daidzein] | 100^ a %
Oc1cc(O)cc(O)c1 [PG, phloroglucinol] | 100^ b %

Test: Simulation of intestinal absorption using a dialysis membrane (3 kDa) after in vitro SGD
Conditions: not given
Excerpt: HPLC-grade methanol, water, and acetonitrile were supplied by Fisher Scientific Chemicals. The enzymes α-amylase (A1031), pepsin from porcine stomach mucosa (P7012), pancreatin from porcine pancreas (P7545), and bile salts (B863) were purchased from Sigma-Aldrich (Taufkirchen, Germany). The rabbit gastric extract (RGE15) with gastric lipase activity was purchased from Lipolytech (Marseille, France). The ethanol was purchased from Merck (Algés, Portugal). A dialysis membrane with a molecular pore size of 3 kDa was purchased from Spectra/Pro (Spectrum Lab, Breda, Netherlands).
as §1
Furthermore, to determine the intestinal absorption, the aliquots collected inside the dialysis membrane were analyzed. The concentration of these samples (from inside of the membrane) corresponds to the amount of each PC that has not passed through to the outside of the membrane.
as §2

Intestinal absorption (IA%) | SMILES | Concentration, dialysis phase (D)
– | O=c1c(-c2ccc(O)cc2)coc2cc(O)ccc12 [DAID, daidzein] | below the detection limit
very high | O=c1oc2c(O)c(O)cc3c(=O)oc4c(O)c(O)cc1c4c23 [EA, ellagic acid] | below the detection limit
– | Oc1cc(O)cc(O)c1 [PG, phloroglucinol] | 225.29 ± 125.33 µg/mL

Same assay, conditions: pig

SMILES | Concentration, dialysis phase (D)
Oc1cc(O)cc(O)c1 [PG, phloroglucinol] | 555.31 ± 145.46 µg/mL

From paper PMC11016601, “Exploring the bioaccessibility and intestinal absorption of major classes of pure phenolic compounds using in vitro simulated gastrointestinal digestion” (Heliyon, 2024)
